Patent publication US20230192598A1, “NOVEL MODIFIED TETRACYCLINES FOR TREATMENT OF ALCOHOL USE DISORDER, PAIN AND OTHER DISORDERS INVOLVING POTENTIAL INFLAMMATORY PROCESSES” (Texas Tech University System, priority 2020, published 2023)
“Also recorded” adds a separate entry of the source.

Legend:
C57BL/6J mice = assay: Drinking in the Dark (DID) model of AUD, ethanol consumption; format: in vivo; details: for % DID: Table 3, ↓ = decrease of alcohol consumption; for reduction of ethanol consumption: by gavage, compared with i.p.
Text: FIGS. 5A to 5C show, 5A) CMMs reduced acute ethanol consumption in the Drinking in the Dark model of AUD. MINO, DeDiAc, and TRI reduced ethanol consumption by over 50% by intraperitoneal injection (Left). […] 5B) Dose response curve for DeDIAc in female mice by gavage. 5C) Dose response curve for DeDIAc in male mice by gavage. MINO=minocycline, BeMAc=Butyl ether monoacetate minocycline, DeDiAc=De amino di acetyl minocycline, TRI=Tri acetyl minocycline. *p<0.05 compared to controls.
(§1) Purity and molecular formula verification of the CMM analogs were done using High Performance Liquid Chromatography (HPLC) Nuclear Magnetic Resonance spectroscopy (NMR) and Liquid Chromatography-Mass Spectrometry (LC-MS) after initial identification via Thin-layer Chromatography (TLC). Zone of inhibition (ZOI) and colony forming unit (CFU) assays were used to assess the antibacterial efficacy of our CMM analogs in E. coli cell culture. Drinking-in-the-Dark (DID) and Two-Bottle Choice (2BC) procedures were utilized in both female and male C57BL/6J mice to evaluate ethanol and water consumption. […] Butyl ether minocycline may be used for an AUD treatment.

E. coli cell culture = assay: Antibacterial efficacy of CMM ether analogs (ZOI and CFU assays, Example 2); format: cell-based; details: for Anti-microbial action: Table 3
Text: as §1

AUD traits = details: seven tetracyclines tested (Syapin et al. 2016); cited from earlier work
[1] = cited from earlier work
E. coli [2] = assay: Zone of inhibition assay; format: cell-based; details: 24 hour cell culture
Text: (§2) MINO=minocycline, BeMAc=Butyl ether monoacetate minocycline, DeDiAc=De amino di acetyl minocycline, TRI=Tri acetyl minocycline.
as §1

E. coli [3] = assay: Colony forming unit assay, antibacterial; format: cell-based; details: 24 hour cell culture
Text: as §2, §1

[4] = butyl ether minocycline 100 mg/kg, i.p.

Compound	% DID (C57BL/6J mice; [4])	Anti-microbial action (E. coli cell culture)	reduction of ethanol consumption (C57BL/6J mice; Drinking in the Dark)	LogD [1]	LogP [1]	also measured
CN(C)c1ccc(O)c2c1CC1CC3C(N(C)C)C(O)=C(C(N)=O)C(=O)C3(O)C(O)=C1C2=O.Cl (stereo not drawn) [Minocycline HCl, 4,7-Bis-dimethylamino-3,10,12,12a-tetrahydroxy-1,11-dioxo-1,4,4a,5,5a,6,11,12a-octahydro-naphthacene-2-carboxylic acid amide hydrochloride, reference compound]	75%	>0.125 mg/mL				
CN(C)c1ccc(O)c2c1C[C@H]1C[C@H]3[C@H](N(C)C)C(=O)C(C(N)=O)=C(O)[C@@]3(O)C(=O)C1=C2O [Minocycline, reference compound]			reduced ethanol consumption to a lesser degree			effectiveness against AUD traits (AUD traits): effective
CCCOc1ccc(N(C)C)c2c1C(=O)C1=C(O)C3(O)C(=O)C(C(N)=O)=C(O)C(N(C)C)C3CC1C2.Cl (stereo not drawn) [Propyl Ether Minocycline HCl, 4,7-Bis-dimethylamino-3,12,12a-trihydroxy-1,11-dioxo-10-propoxy-1,4,4a,5,5a,6,11,12a-octahydro-naphthacene-2-carboxylic acid amide hydrochloride]	50%	>4 mg/mL				
C[C@H]1c2cccc(O)c2C(=O)C2=C(O)[C@]3(O)C(=O)C(C(N)=O)=C(O)[C@@H](N(C)C)[C@@H]3[C@@H](O)[C@@H]21 [Doxycycline]				−3.29	−0.54	effectiveness against AUD traits (AUD traits): effective
CCOc1ccc(N(C)C)c2c1C(=O)C1=C(O)C3(O)C(=O)C(C(N)=O)=C(O)C(N(C)C)C3CC1C2.Cl (stereo not drawn) [Ethyl Ether Minocycline HCl, 4,7-Bis-dimethylamino-10-ethoxy-3,12,12a-trihydroxy-1,11-dioxo-1,4,4a,5,5a,6,11,12a-octahydro-naphthacene-2-carboxylic acid amide hydrochloride]	50%	>2 mg/mL				
Tri acetyl minocycline			reduced ethanol consumption to a lesser degree			
Butyl ether monoacetate minocycline [BeMAc]			reduced ethanol consumption to a lesser degree			
CCCCOc1ccc(N(C)C)c2c1C(=O)C1=C(O)C3(O)C(=O)C(C(N)=O)=C(O)C(N(C)C)C3CC1C2.Cl (stereo not drawn) [Butyl Ether Minocycline HCl, 10-Butoxy-4,7-bis-dimethylamino-3,12,12a-trihydroxy-1,11-dioxo-1,4,4a,5,5a,6,11,12a-octahydro-naphthacene-2-carboxylic acid amide hydrochloride]	85%	ND 64 mg/ml				alcohol consumption (in words) (C57BL/6J mice; Example 2, butyl ether minocycline 100 mg/kg, i.p., hydrochloride): significantly reduced alcohol consumption; also recorded: greatest reduction in alcohol consumption; antibiotic / antimicrobial activity (in words) (E. coli cell culture; Example 2, compared to minocycline): lost antibiotic activity
De amino di acetyl minocycline [DeDiAc]			reduced ethanol consumption to a lesser degree			antibacterial action, zone of inhibition (E. coli [2]): loss of antibiotic activity; antibacterial action, colony forming units (E. coli [3]): loss of antibiotic activity; ethanol consumption (in words) (C57BL/6J mice; Example 1, Drinking in the Dark, intraperitoneal and oral administration): significantly reduced ethanol consumption
CN(C)[C@@H]1C(O)=C(C(N)=O)C(=O)[C@@]2(O)C(O)=C3C(=O)c4c(O)cccc4[C@@](C)(O)[C@H]3[C@H](O)[C@@H]12 [Oxytetracycline]				−4.25	−1.5	
CN(C)[C@@H]1C(O)=C(C(N)=O)C(=O)[C@@]2(O)C(O)=C3C(=O)c4c(O)ccc(Cl)c4[C@@H](O)[C@H]3C[C@@H]12 [Demeclocycline]				−3.40	−1.07	
COc1ccc(N(C)C)c2c1C(=O)C1=C(O)C3(O)C(=O)C(C(N)=O)=C(O)C(N(C)C)C3CC1C2.Cl (stereo not drawn) [Methyl Ether Minocycline HCl, 4,7-Bis-dimethylamino-3,12,12a-trihydroxy-10-methoxy-1,11-dioxo-1,4,4a,5,5a,6,11,12a-octahydro-naphthacene-2-carboxylic acid amide hydrochloride]	40%	>16 mg/mL				
CN(C)c1cc(NC(=O)CNC(C)(C)C)c(O)c2c1C[C@H]1C[C@H]3[C@H](N(C)C)C(O)=C(C(N)=O)C(=O)[C@@]3(O)C(O)=C1C2=O [Tigecycline]				−2.73	−1.30	effectiveness against AUD traits (AUD traits): effective
